# Measured values as given in patent US20220125876A1, “A METHOD OF IMMUNE MODULATION BY MODULATING ABCF1” (Pacific Myco Biosciences, Ltd., priority 2019, published 2022).
# Entries after “also recorded” stand apart in the source; their conditions may differ.
# B1: IL-1β: recombinant IL-1β (10 ng/ml) used to treat BMDMs (protein, UniProt P10749 118-269, looked up)
# Interleukin-1 beta: VPIRQLHYRLRDEQQKSLVLSDPYELKALHLNGQNINQQVIFSMSFVQGEPSNDKIPVALGLKGKNLYLSCVMKDGTPTLQLESVDPKQYPKKKMEKRFVFNKIEVKSKVEFESAEFPNWYISTSQAEHKPVFLGNNSGQDIIDFTMESVSS
# B2: IL-10: recombinant IL-10 (50 ng/ml) used to treat BMDMs (protein, UniProt P18893 19-178, looked up)
# Interleukin-10: SRGQYSREDNNCTHFPVGQSHMLLELRTAFSQVKTFFQTKDQLDNILLTDSLMQDFKGYLGCQALSEMIQFYLVEVMPQAEKHGPEIKEHLNSLGEKLKTLRMRLRRCHRFLPCENKSKAVEQVKSDFNKLQDQGVYKAMNEFDIFINCIEAYMMIKMKS
# B3: IFNβ: recombinant IFNβ (10,000 IU/50 μl) used to treat BMDMs (protein, UniProt P01575 22-182, looked up)
# Interferon beta: INYKQLQLQERTNIRKCQELLEQLNGKINLTYRADFKIPMEMTEKMQKSYTAFAIQEMLQNVFLVFRNNFSSTGWNETIVVRLLDELHQQTVFLKTVLEEKQEERLTWEMSSTALHLKSYYWRVQRYLKLMKYNSYAWMVVRAEIFRNFLIIRRLTRNFQN
# Assays:
# [1] = system: bone marrow derived macrophages (BMDM); assay: Immunoblotting of BMDM lysates for protein expression and phosphorylation; format: cell-based, mouse
# Method: (§1) Western blotting: Cell lysates were prepared as described above. All co-immunoprecipitation samples were prepared without DTT in the sample buffer, unless otherwise mentioned. All other western blot samples were prepared with DTT in the sample buffer. Lysates were electrophoresed and immunoblotted with indicated antibodies.
# Cytoplasmic and Nuclear fractionation: Bone marrow macrophages were stimulated with mentioned treatments and cytoplasmic and nuclear fractionation was performed with NE-PER Nuclear and Cytoplasmic Extraction Reagents (Thermo Scientific; 78833) according to manufacturer's instructions.
# as §1, with “Cell” for “Western blotting: Cell”
# Bone marrow macrophages were stimulated with indicated treatments and cytoplasmic and nuclear fractionation was performed with NE-PER Nuclear and Cytoplasmic Extraction Reagents (Thermo Scientific; 78833) according to manufacturer's instructions.
# ABCF1 [2] = assay: Polyubiquitination state of ABCF1 in BMDM (immunoprecipitation with anti-ABCF1, immunoblot with anti-polyubiquitin antibodies); format: cell-based, mouse
# ABCF1 [3] = conditions: cited from earlier work
# ubiquitin = biological target: T1, ubiquitin (Homo sapiens, UniProt P0CG48); assay: In vitro ubiquitination assay; format: biochemical, mouse; conditions: with UBA1 (E1), Mg2+ and ATP, DTT sensitive
# T1 construct: recombinant ABCF1, UBA1, and Ub proteins were incubated in the presence of cofactors; purchased abcam ab139467; host or cells: ubiquitin and E1 from the kit; ABCF1 immunoprecipitated from transfected mouse BMDM
# Method: In vitro ubiquitination Assay: Abcf1WT and Abcf1C647S expression plasmids were overexpressed in macrophages as described above. Before overexpressing Abcf1C647S expression plasmid, cells were treated with Abcf1 siRNA, as described above to eliminate endogenous Abcf1 levels. Abcf1 siRNA treated cells were washed with cold PBS twice and then Abcf1C647S expression plasmid was overexpressed. Cell lysates were prepared and subjected to co-immunoprecipitation with anti ABCF1 antibody. Extend of overexpression and co-immunoprecipitation was checked by western blot. Ubiquitination Assay was performed on immunoprecipitated samples with Ubiquitylation Assay Kit (abcam; ab139467) according to manufacturer's instructions. Samples were run on a gel and blotted with anti ABCF1 and anti UB antibodies.
# To confirm the finding, enzyme activity of ABCF1 was investigated in presence and absence of cofactor Mg^2+ and ATP via an in vitro ubiquitination assay. […] As thio-ester bonds mediate ubiquitin attachment to the E2 enzyme and are DTT sensitive, no such protein band was observed when samples were treated with DTT.
# To confirm if the conserved cysteine at position 647 in the ABCF1 sequence is the catalytic cysteine that mediates the E2 function, in vitro ubiquitination assay was performed with Abcf1 WT and Abcf1 C647S (where the cysteine was mutated to a serine) protein constructs. […]
# [4] = induction of hypoxia, CoCl2 100 μM for 24 hours
# [5] = LPS (100 ng/ml) 30 min, SM 100 nM, Dynasore 80 μM
# [6] = BMDMs treated with recombinant cytokine for 24 hours (TNFα 10 ng/ml, IL-1β 10 ng/ml, IL-10 50 ng/ml, IFNβ 10,000 IU/50 μl)
molecule,measurement,setting,value
"[Cl][Co][Cl] [CoCl2, Cobalt Chloride]",ABCF1 expression,[1]; [4],decreased
same,HIF-1α expression,[1]; [4],increased
O=C(N/N=C/c1ccc(O)c(O)c1)c1cc2ccccc2cc1O [Dynasore],polyubiquitin linkage of ABCF1,ABCF1 [2]; Dynasore treatment alone,led to K48-polyubiquitination
same,K48-polyubiquitination of ABCF1,ABCF1 [2]; [5],targeted for K48-polyubiquitination; also recorded: extensively upregulated
same,K63-polyubiquitination of ABCF1,ABCF1 [2]; [5],no K63-polyubiquitination was observed; also recorded: greatly reduced
CN(C)CCC[C@@]1(c2ccc(F)cc2)OCc2cc(C#N)ccc21 [Escitalopram],effect on ABCF1 pathway,ABCF1 [3],known enhancer of the ABCF1 pathway
CN[C@@H](C)C(=O)N[C@H](C(=O)N1CCC[C@H]1Cn1nnnc1Sc1ccccc1)C(C)OCC#CC#CCO[C@H](C)[C@H](NC(=O)[C@H](C)NC)C(=O)N1CCCC1Cn1nnnc1Sc1ccccc1 (stereo partly shown) [SM],K63-polyubiquitination of ABCF1,ABCF1 [2]; [5],increased
same,polyubiquitin linkage of ABCF1,ABCF1 [2]; LPS treatment for 10 minutes,K63-polyubiquitination of ABCF1 instead
TNFα,ABCF1 expression,[1]; [6],decreased
recombinant ABCF1: recombinant ABCF1 protein used in the in vitro ubiquitination assay,mass / apparent molecular weight shift of ABCF1 (Ub thioester attachment),ubiquitin,increase in mass size; also recorded: increase in the apparent molecular weight
B1,ABCF1 expression,[1]; [6],decreased
B2,ABCF1 expression,[1]; [6],increased
B3,ABCF1 expression,[1]; [6],increased
